The results in this text go back to patent US20020193425A1, “Cancer chemopreventative compounds and compositions and methods of treating cancers” (priority 2001, published 2002).

Holding throughout (assay type): cell-based
The subject of one test is c-Myc oncoprotein, Daudi. Nature of the test: c-Myc oncoprotein expression, western blotting. As to the method: (§1) The expression of c-Myc was assessed by immunoblots as previously described. In brief, cells (10^6) were treated and harvested at various time intervals, and whole-cell pellets were lysed with detergent lysis buffer (1 ml/10^7 cells, 50 mM Tris-HCl buffer, pH 8.0, 150 mM NaCl, 1 mM DTT, 0.5 mM EDTA, 1% Nonidet® P40, 0.5% sodium deoxycholate, 0.1% sodium dodecylsulfate, 100 μg/ml phenylmethylsulfonyl fluoride, 1 μg/ml aprotinin, 2 μg/ml leupeptin and 100 μM sodium vanadate) to obtain protein lysates. Protein concentrations were quantified using a bicinchoninic acid kit. Since c-Myc is a labile protein, cell lysates were not frozen, but stored at 4° C., until all protein lysates were prepared for a particular cell line, and then western blots were performed immediately. Total protein ([…]) was separated by 10% SDS-PAGE, electroblotted to PVDF membranes, and blocked overnight with 5% nonfat dry milk. The membrane was incubated with a solution of the primary antibody (2.5 μg/ml), prepared in 1% blocking solution, for 2 h at room temperature, washed three-times for 15 min with PBS-T (PBS with 0.1%, v/v, Tween 20), and incubated with a 1:2500 dilution of horseradish peroxidase-conjugated secondary antibody for 30 min at 37° C. Blots were again washed three-times for 10 min each in PBS-T and developed by enhanced chemiluminescence (Amersham). Membranes were exposed to Kodak Biomax film and the resulting film was analyzed using Kodak 1D Image Analysis software. Membranes were then stripped and reprobed for the quantification of bactin.
(§2) Cells were treated with solvent (0.1% v/v DMSO, control), brusatol (25 ng/ml) or bruceantin (10 ng/ml) for 4 or 24 h, then analyzed by western blotting. Membranes were probed for c-Myc, and then stripped and probed for β-actin as an internal control.
(§3) Cells were treated with brusatol (25 ng/ml) or bruceantin (10 ng/ml) for 4 or 24 h, and then analyzed for c-Myc and β-actin expression using western blotting techniques. Results are expressed as percentage of c-Myc oncoprotein of control (0.1%, v/v, DMSO treated cells) values. Results were normalized relative to β-actin.

A further test relates to c-Myc oncoprotein, Reh. Briefly: c-Myc oncoprotein expression, western blotting. As to the method:
as §1, §2, §3

Test [1] has as its system c-Myc oncoprotein, SUPB13. Briefly: c-Myc oncoprotein expression, western blotting. As to the method:
as §1, §2, §3

Another test has as its system c-Myc oncoprotein, BV173. Nature of the test: c-Myc oncoprotein expression, western blotting. As to the method: as §1, §2, §3
The next test deals with c-Myc oncoprotein, U937. Briefly: c-Myc oncoprotein expression, western blotting. As to the method:
as §1, §2, §3

Another test concerns c-Myc oncoprotein, K562. Briefly: c-Myc oncoprotein expression, western blotting. As to the method:
as §1, §2, §3

For test [2], the system named is c-Myc oncoprotein, Kasumi-1. Nature of the test: c-Myc oncoprotein expression, western blotting. As to the method:
as §1, §2, §3

For test [3], the system named is c-Myc oncoprotein, RS4;11. Briefly: c-Myc oncoprotein expression, western blotting. As to the method:
as §1, §2, §3

In another test the test system is c-Myc oncoprotein, NB4. Briefly: c-Myc oncoprotein expression, western blotting. As to the method: as §1, §2, §3
The test system of test [4] is DMBA-induced preneoplastic lesion formation in mouse mammary organ culture. Briefly: Inhibition of DMBA-induced preneoplastic lesion formation in mouse mammary organ culture (MMOC). To be noted: Mus musculus; quassinoid (2 μM); in comparison with a DMBA control. As to the method:
The identification of potential inhibitors of DMBA-induced preneoplastic lesion formation in mammary organ culture has been described previously. Briefly, four-week old BALB/c female mice (Charles River) were pretreated for nine days with 1 μg estradiol and 1 mg progesterone. The thoracic pair of mammary glands was dissected on silk and incubated with growth-promoting hormones in the presence of test compounds (2 μM) for 10 days. DMBA ([…]) was included in the medium (containing […]) for 24 hours on the third day of culture to induce preneoplastic mammary lesions. Following 10 days of growth promoting phase, all hormones except insulin were withdrawn and the glands were allowed to regress to lobuloalveolar structures during a 14-day incubation period. Glands then were fixed in 10% buffered formalin and stained with alum carmine. Incidence of lesion formation (percentage of glands per group with mammary lesions) was recorded, and percent inhibition was calculated by comparison with the DMBA control group that was not treated with test sample. Active samples induce 60% inhibition, based on historical controls.

Take `COC(=O)[C@@]12OC[C@]34[C@H]([C@@H](O)[C@@H]1O)[C@@]1(C)CC(=O)C(O)=C(C)[C@@H]1C[C@H]3OC(=O)[C@H](OC(=O)C=C(C)C)[C@@H]24` [compound 1, brusatol]: the “c-Myc oncoprotein, percentage of control” value in the test on c-Myc oncoprotein, Daudi (Brusatol (25 ng/ml), 4 h) turned out to be 79%; in the test with c-Myc oncoprotein, Daudi (Brusatol (25 ng/ml), 24 h), 10%; in the test on c-Myc oncoprotein, Reh (Brusatol (25 ng/ml), 4 h) it was 66%; with c-Myc oncoprotein, Reh (Brusatol (25 ng/ml), 24 h) it was 32%; in test [1] (Brusatol (25 ng/ml), 4 h), 52%; in test [1] (Brusatol (25 ng/ml), 24 h) it was 41%. In addition, the “c-Myc oncoprotein, percentage of control” value with c-Myc oncoprotein, BV173 (Brusatol (25 ng/ml), 4 h) stood at 22%; with c-Myc oncoprotein, BV173 (Brusatol (25 ng/ml), 24 h), 41%; in the test with c-Myc oncoprotein, U937 (Brusatol (25 ng/ml), 4 h) it was 5%; with c-Myc oncoprotein, U937 (Brusatol (25 ng/ml), 24 h) it was 12%; in the test on c-Myc oncoprotein, K562 (Brusatol (25 ng/ml), 4 h), 6%; in the test with c-Myc oncoprotein, K562 (Brusatol (25 ng/ml), 24 h), 13%. The “c-Myc oncoprotein, percentage of control” value in [2] (Brusatol (25 ng/ml), 4 h) stood at 66%; in test [2] (Brusatol (25 ng/ml), 24 h), 112%; in test [3] (RS4,11, Brusatol (25 ng/ml), 24 h), 10%; in test [3] (RS4;11, Brusatol (25 ng/ml), 4 h) it was 20%; in the test on c-Myc oncoprotein, NB4 (Brusatol (25 ng/ml), 4 h) it was 0%; with c-Myc oncoprotein, NB4 (Brusatol (25 ng/ml), 24 h), 0%. Besides, in the test with c-Myc oncoprotein, K562 (4 h treatment), the “decrease of c-Myc protein levels” value was found to be 94%. In addition, the inhibition at 2 µM in test [4] turned out to be 70%.
Take `COC(=O)[C@@]12OC[C@]34[C@H]([C@@H](O)[C@@H]1O)[C@@]1(C)CC(=O)C(O)=C(C)[C@@H]1C[C@H]3OC(=O)[C@H](OC(=O)/C=C(\C)C(C)C)[C@@H]24` [compound 2, bruceantin]: the “c-Myc oncoprotein, percentage of control” value in the test on c-Myc oncoprotein, Daudi (Bruceantin (10 ng/ml), 4 h) is 67%; in the test on c-Myc oncoprotein, Daudi (Bruceantin (10 ng/ml), 24 h), 2%; in the test on c-Myc oncoprotein, Reh (Bruceantin (10 ng/ml), 4 h), 44%; in the test on c-Myc oncoprotein, Reh (Bruceantin (10 ng/ml), 24 h) it was 40%; in [1] (Bruceantin (10 ng/ml), 4 h), 42%; in test [1] (Bruceantin (10 ng/ml), 24 h) it was 63%. Besides, the “c-Myc oncoprotein, percentage of control” value with c-Myc oncoprotein, BV173 (Bruceantin (10 ng/ml), 4 h) was 28%; in the test with c-Myc oncoprotein, BV173 (Bruceantin (10 ng/ml), 24 h), 12%; in the test on c-Myc oncoprotein, U937 (Bruceantin (10 ng/ml), 4 h), 40%; in the test with c-Myc oncoprotein, U937 (Bruceantin (10 ng/ml), 24 h) it was 44%; in the test on c-Myc oncoprotein, K562 (Bruceantin (10 ng/ml), 4 h) it was 2%; in the test with c-Myc oncoprotein, K562 (Bruceantin (10 ng/ml), 24 h) it was 12%. The “c-Myc oncoprotein, percentage of control” value in test [2] (Bruceantin (10 ng/ml), 4 h) was found to be 70%; in [2] (Bruceantin (10 ng/ml), 24 h), 87%; in test [3] (RS4;11, Bruceantin (10 ng/ml), 4 h) it was 140%; in test [3] (RS4;11, Bruceantin (10 ng/ml), 24 h), 6%; in the test on c-Myc oncoprotein, NB4 (Bruceantin (10 ng/ml), 4 h), 0%; with c-Myc oncoprotein, NB4 (Bruceantin (10 ng/ml), 24 h), 0%. Also, in [4], at 2 µM the inhibition was 70%.
